Test results from the NIST ThermoML archive (doi:10.1016/j.jct.2008.12.014).

Conditions: Liquid, Vibrating tube method

CC(C)O [propan-2-ol]
Conditions | mass density [kg/m3]
280.21 K, 117.9 kPa | 797.61
280.21 K, 439.6 kPa | 797.89
280.21 K, 938.7 kPa | 798.29
280.21 K, 1328.4 kPa | 798.62
280.21 K, 1656.6 kPa | 798.89
280.21 K, 1944.9 kPa | 799.14
280.21 K, 2440.6 kPa | 799.56
280.21 K, 2850.6 kPa | 799.88
280.21 K, 3198 kPa | 800.17
280.21 K, 3679.1 kPa | 800.56
280.21 K, 4071.1 kPa | 800.9
280.21 K, 4437.7 kPa | 801.19
280.21 K, 4832.6 kPa | 801.5
280.21 K, 5182.1 kPa | 801.8
280.21 K, 5559.1 kPa | 802.1
280.21 K, 5910 kPa | 802.39
280.21 K, 6334.9 kPa | 802.73
280.21 K, 6750.9 kPa | 803.06
280.21 K, 7592 kPa | 803.74
280.21 K, 7999 kPa | 804.07
280.21 K, 8329 kPa | 804.33
280.21 K, 8817 kPa | 804.7
280.21 K, 9350.6 kPa | 805.11
280.21 K, 9658.5 kPa | 805.38
281.21 K, 7166.5 kPa | 803.39
300.09 K, 186.7 kPa | 780.22
300.09 K, 610.5 kPa | 780.62
300.09 K, 953.4 kPa | 780.94
300.09 K, 1339.5 kPa | 781.31
300.09 K, 1722.1 kPa | 781.66
300.09 K, 2044.8 kPa | 781.96
300.09 K, 2446.4 kPa | 782.34
300.09 K, 2834.6 kPa | 782.7
300.09 K, 3224.9 kPa | 783.06
300.09 K, 3671.1 kPa | 783.47
300.09 K, 4074.1 kPa | 783.84
300.09 K, 4362.5 kPa | 784.11
300.09 K, 4771.8 kPa | 784.48
300.09 K, 5226.5 kPa | 784.89
300.09 K, 5579.2 kPa | 785.21
300.09 K, 6001.6 kPa | 785.59
300.09 K, 6427.2 kPa | 785.98
300.09 K, 6780.3 kPa | 786.29
300.09 K, 7214.7 kPa | 786.68
300.09 K, 7629.9 kPa | 787.05
300.09 K, 8020.3 kPa | 787.4
300.09 K, 8417.5 kPa | 787.75
300.09 K, 8805.7 kPa | 788.1
300.09 K, 9212.9 kPa | 788.45
300.09 K, 9621.5 kPa | 788.81
325.12 K, 202.7 kPa | 757.05
325.12 K, 609.4 kPa | 757.49
325.12 K, 960 kPa | 757.87
325.12 K, 1253.9 kPa | 758.21
325.12 K, 1638.8 kPa | 758.63
325.12 K, 2021 kPa | 759.06
325.12 K, 2328.8 kPa | 759.39
325.12 K, 3014.9 kPa | 760.15
325.12 K, 3321.4 kPa | 760.48
325.12 K, 3659.4 kPa | 760.85
325.12 K, 4004.1 kPa | 761.22
325.12 K, 4399.2 kPa | 761.65
325.12 K, 4691.2 kPa | 761.97
325.12 K, 5010.7 kPa | 762.32
325.12 K, 5383.4 kPa | 762.71
325.12 K, 5730.5 kPa | 763.08
325.12 K, 6143.6 kPa | 763.52
325.12 K, 6525.6 kPa | 763.91
325.12 K, 6903.2 kPa | 764.31
325.12 K, 7293.8 kPa | 764.72
325.12 K, 7661.9 kPa | 765.11
325.12 K, 7918.6 kPa | 765.38
325.12 K, 8254.4 kPa | 765.72
325.12 K, 8755.5 kPa | 766.24
325.15 K, 2655.8 kPa | 759.75
